Assay results: patent US11643413B2, “9-(2-oxacycloalkyl)-9H-purine-2,6-diamine derivatives and their use for the treatment of skin disorders” (UNIVERZITA PALACKEHO V OLOMOUCI, priority 2017, dated 2023)
Counter-ions that a name gives are not always drawn. Like-named read-outs stand apart in the source and are kept apart here.

Experiments:
[1] = system: BJ (human foreskin fibroblasts); test: Calcein AM cytotoxicity, BJ; conditions: read-out: Cytotoxicity IC50, BJ; 72 hours incubation, Calcein AM; highest concentration […]
From the text: (§1) One of the parameters used, as the basis for cytotoxicity assays, is the metabolic activity of viable cells. For example, a microtiter assay, which uses the Calcein AM, is now widely used to quantitate cell proliferation and cytotoxicity. […] Because only metabolically active cells cleave Calcein AM, these assays detect viable cells exclusively. The quantity of reduced Calcein AM corresponds to the number of vital cells in the culture.
(§2) Mouse fibroblasts NIH3T3; mouse immortalized bone marrow macrophages B2.4 and B10A.4, and BJ (human foreskin fibroblasts) were used for routine screening of compounds. The cells were maintained in Nunc/Corning 80 cm^2 plastic tissue culture flasks and cultured in cell culture medium (DMEM with 5 g/l glucose, 2 mM glutamine, 100 U/ml penicillin, 100 μg/ml streptomycin, 10% fetal calf serum and sodium bicarbonate).
(§3) The cell suspensions that were prepared and diluted according to the particular cell type and the expected target cell density (2.500-30.000 cells per well based on cell growth characteristics) were added by pipette (80 μl) into 96/well microtiter plates. Inoculates were allowed a pre-incubation period of 24 hours at 37° C. and 5% CO2 for stabilisation. Four-fold dilutions of the intended test concentration were added at time zero in 20 μl aliquots to the microtiter plate wells. Usually, the compound tested was evaluated at six 4-fold dilutions. […] All compound concentrations were examined in duplicates. Incubations of cells with the tested compounds lasted for 72 hours at 37° C., in 5% CO2 atmosphere and 100% humidity. At the end of the incubation period, the cells were assayed by using Calcein AM. Ten microliters of the stock solution were pipetted into each well and incubated for 1 hour. Fluorescence (FD) was measured with the Labsystem FIA Reader Fluoroscan Ascent (UK).

B10A.4 [2] = test: Calcein AM cytotoxicity, B10A.4 (first column); conditions: read-out: Cytotoxicity IC50, B10A.4; 72 hours incubation, Calcein AM; highest concentration […]
From the text: as §1, §2, §3

NIH-3T3 [3] = test: Calcein AM cytotoxicity, NIH-3T3; conditions: read-out: Cytotoxicity IC50, NIH-3T3; 72 hours incubation, Calcein AM; highest concentration […]
From the text: as §1, §2, §3

NIH3T3 fibroblasts = test: Peroxidation of membrane lipids, MDA by TBA method; assay type: cell-based, mouse; conditions: FW = fresh weight
Protocol: A typical symptom associated with aging is the direct consequence of increased concentrations of reactive oxygen species and lipid peroxidation. […] MDA levels were measured using thiobarbituric acid (TBA method). […] The crude extract was centrifuged at 10,000×g for 5 minutes and 100 μl aliquots of the supernatant were mixed with 100 μl of 0.5% (w/v) TBA containing 0.1% (w/v) trichloroacetic acid. The resulting solution was then incubated for 30 min at 95° C. The samples were rapidly cooled on ice and centrifuged for 5 minutes at 1000×g. […] The newly prepared derivatives of the general formula thus have a protective function against the negative effects of reactive oxygen species that accumulate strongly in the tissues.

[4] = Radical scavenging activity determined by ORAC; conditions: relative to trolox; Mean ± SD (n = 3)
Protocol: The ability of compounds to scavenge free radicals in vitro was determined by Oxygen Radical Absorbance Capacity (ORAC) method. In brief, fluorescein (100 μl, […]) and 25 μl of compound solution were added into each working well in a 96-well microplate preincubated at 37° C. Thereafter, 25 μL of 250 mM AAPH was quickly added, microplate was shaken for 5 s and the fluorescence (Ex. 485 nm, Em. 510 nm) was read every 3 min over 90 min by using microplate reader Infinite 200 (TECAN, Switzerland). The net area under the curve was used to express antioxidant activity relative to trolox which was used as a standard.

[5] = Calcein AM cytotoxicity, BJ; conditions: human, BJ foreskin fibroblasts
From the text: as §1, §2, §3

[6] = Calcein AM cytotoxicity, B10A.4 (first column); conditions: mouse, B10A.4 immortalized bone marrow macrophages
From the text: as §1, §2, §3

[7] = Calcein AM cytotoxicity, NIH-3T3; conditions: mouse, NIH-3T3 fibroblasts
From the text: as §1, §2, §3

[8] = system: BJ (human foreskin fibroblasts)
From the text: as §1, §2, §3

NIH-3T3 [9] = system: NIH-3T3
From the text: as §1, §2, §3

B10A.4 [10] = system: B10A.4
From the text: as §1, §2, §3

[11] = system: Rabbits (New Zealand Albino breed); conditions: New Zealand Albino, rabbit, in vivo, 4 h
Protocol: The test substance 114 was tested in Animal skin irritation test. Rabbits (New Zealand Albino breed) were used for the test. The test was performed according to ČSN EN ISO 10993 (Březen 2014): Biologické hodnoceni zdravotnických prostředků—část 10: Zkoušky dráždivosti a senzibilizace kůže, článek 6.3 Zkouška dráždivosti na zviřatech (Biological evaluation of medical devices—Part 10: Tests for irritation and delayed-type hypersensitivity). A dose 0.5 g of the test substance was applied to the skin of the back on each side of each rabbit. […] At first the one rabbit (test animal. No. 16) was used. Two other rabbits (rabbit No. 17 and No. 18) were used in confirmatory test. At the end of the contact time (4 hours) the dressings were removed and animals were examined for signs of erythema and oedema, and the response was evaluated at 1, 24, 48 and 72 hours afterpatches removal.

SMILES | MDA (NIH3T3 fibroblasts) [nmol/g FW] | IC50 [8] [µM] | IC50 (NIH-3T3 [9]) [µM] | IC50 (B10A.4 [10]) [µM] | other results
CN(C)c1nc(NCc2ccco2)c2ncn(C3CCO3)c2n1 (stereo not shown) [Compound 3] | 12.4 |  |  |  | IC50 [1]: > 167 µM; IC50 (B10A.4 [2]): > 167 µM; IC50 (NIH-3T3 [3]): > 167 µM
CCN(CC)c1nc(NCc2ccccc2)c2ncn(C3CCO3)c2n1 (stereo not shown) [Compound 9] | 12.2 |  |  |  | IC50 [1]: > 167 µM; IC50 (B10A.4 [2]): > 167 µM; IC50 (NIH-3T3 [3]): > 167 µM
CN(C)c1nc(NCc2ccco2)c2ncn(C3CCCO3)c2n1 (stereo not shown) [Compound 30, 2-(Dimethylamino)-6-furfurylamino-9-(tetrahydrofuran-2-yl)-9H-purine] | 12.6 |  |  |  | ORAC (compound/trolox) [4]: 0.292 ± 0.006; IC50 at 72 h [5]: > 167 µM; IC50 at 72 h [6]: > 167 µM; IC50 at 72 h [7]: > 167 µM
CNc1nc(NCc2cc(C)co2)c2ncn(C3CCCO3)c2n1 (stereo not shown) [Compound 39] | 11.4 | > 167 | > 167 | > 167 | 
CCN(CC)c1nc(NCc2ccc(C)o2)c2ncn(C3CCCO3)c2n1 (stereo not shown) [Compound 47] | 12.5 | > 167 | > 167 | > 167 | 
COc1coc(CNc2nc(NCCN(C)C)nc3c2ncn3C2CCCO2)c1 (stereo not shown) [Compound 58] | 11.4 | > 167 | > 167 | > 167 | 
CNc1nc(NCc2ccc(OC)o2)c2ncn(C3CCCO3)c2n1 (stereo not shown) [Compound 59] | 11.5 | > 167 | > 167 | > 167 | 
CCNc1nc(NCc2ccc(OC)o2)c2ncn(C3CCCO3)c2n1 (stereo not shown) [Compound 60] | 12.2 | > 167 | > 167 | > 167 | 
CNc1nc(NCc2ccccc2)c2ncn(C3CCCO3)c2n1 (stereo not shown) [Compound 64, 2-(Methylamino)-6-benzylamino-9-(tetrahydrofuran-2-yl)-9H-purine] |  |  |  |  | ORAC (compound/trolox) [4]: 0.24 ± 0.001
CN(C)c1nc(NCc2cccc(O)c2)c2ncn(C3CCCO3)c2n1 (stereo not shown) [Compound 71, 2-(Dimethylamino)-6-(3-hydroxybenzylamino)-9-(tetrahydrofuran-2-yl)-9H-purine] |  |  |  |  | ORAC (compound/trolox) [4]: 5.212 ± 0.238
CCNc1nc(NCc2ccc(O)cc2)c2ncn(C3CCCO3)c2n1 (stereo not shown) [Compound 75] | 11.7 | > 167 | > 167 | > 167 | 
CN(C)c1nc(NCc2ccc(O)cc2)c2ncn(C3CCCO3)c2n1 (stereo not shown) [Compound 76, 2-(Dimethylamino)-6-[(4-hydroxybenzyl)amino]-9-(tetrahydrofuran-2-yl)-9H-purine] |  |  |  |  | ORAC (compound/trolox) [4]: 0.192 ± 0.005
CCN(CC)c1nc(NCc2cccc(OC)c2)c2ncn(C3CCCO3)c2n1 (stereo not shown) [Compound 82] | 10.9 | > 167 | > 167 | > 167 | 
CNc1nc(NCc2ccc(OC)cc2)c2ncn(C3CCCO3)c2n1 (stereo not shown) [Compound 84, 2-(Methylamino)-6-[(4-methoxybenzyl)amino]-9-(tetrahydrofuran-2-yl)-9H-purine] | 10.6 |  |  |  | IC50 at 72 h [5]: > 167 µM; IC50 at 72 h [6]: > 167 µM; IC50 at 72 h [7]: > 167 µM
CCNc1nc(NCc2ccc(OC)cc2)c2ncn(C3CCCO3)c2n1 (stereo not shown) [Compound 85] | 11.1 | > 167 | > 167 | > 167 | 
CCN(CC)c1nc(NCc2ccc(OC)cc2)c2ncn(C3CCCO3)c2n1 (stereo not shown) [Compound 87] | 10.4 | > 167 | > 167 | > 167 | 
COc1cc(CNc2nc(N(C)C)nc3c2ncn3C2CCCO2)ccc1O (stereo not shown) [Compound 89, 2-(Dimethylamino)-6-[(4-hydroxy-3-methoxybenzyl)amino]-9-(tetrahydrofuran-2-yl)-9H-purine] |  |  |  |  | ORAC (compound/trolox) [4]: 4.359 ± 0.183
CCN(CC)c1nc(NCC=C(C)C)c2ncn(C3CCCO3)c2n1 (stereo not shown) [Compound 93] | 10.5 | > 167 | > 167 | > 167 | 

SMILES | MDA (NIH3T3 fibroblasts) [nmol/g FW] | IC50 [8] [µM] | IC50 (NIH-3T3 [9]) [µM] | IC50 (B10A.4 [10]) [µM] | other results
C/C(=C\CNc1nc(NCCN(C)C)nc2c1ncn2C1CCCO1)CO (stereo not shown) [Compound 99] | 10.2 | > 167 | > 167 | > 167 | 
CCNc1nc(NC/C=C(/C)CO)c2ncn(C3CCCO3)c2n1 (stereo not shown) [Compound 101] | 10.6 | > 167 | > 167 | > 167 | 
CCN(CC)c1nc(NC/C=C(/C)CO)c2ncn(C3CCCO3)c2n1 (stereo not shown) [Compound 103] | 10.1 | > 167 | > 167 | > 167 | 
C/C(=C/CNc1nc(NCCN(C)C)nc2c1ncn2C1CCCO1)CO (stereo not shown) [Compound 104] | 9.6 | > 167 | > 167 | > 167 | 
CNc1nc(NCCC(C)CO)c2ncn(C3CCCO3)c2n1 (stereo not shown) [Compound 105] | 10.6 | > 167 | > 167 | > 167 | 
CC(CO)CCNc1nc(N(C)C)nc2c1ncn2C1CCCO1 (stereo not shown) [Compound 107] | 10.3 | > 167 | > 167 | > 167 | 
CCN(CC)c1nc(NCCC(C)CO)c2ncn(C3CCCO3)c2n1 (stereo not shown) [Compound 108] | 9.7 | > 167 | > 167 | > 167 | 
CNc1nc(NCc2ccco2)c2ncn(C3CCCCO3)c2n1 (stereo not shown) [Compound 110, 2-(Methylamino)-6-furfurylamino-9-(tetrahydro-2H-pyran-2-yl)-9H-purine] |  |  |  |  | ORAC (compound/trolox) [4]: 0.205 ± 0.032
CCNc1nc(NCc2ccco2)c2ncn(C3CCCCO3)c2n1 (stereo not shown) [Compound 111, 2-(ethylamino)-6-furfurylamino-9-(tetrahydro-2H-pyran-2-yl)-9H-purine] | 10.3 |  |  |  | IC50 at 72 h [5]: > 167 µM; IC50 at 72 h [6]: > 167 µM; IC50 at 72 h [7]: > 167 µM
CCNc1nc(NCc2occc2C)c2ncn(C3CCCCO3)c2n1 (stereo not shown) [Compound 119] | 9.7 |  |  |  | IC50 [1]: > 167 µM; IC50 (B10A.4 [2]): > 167 µM; IC50 (NIH-3T3 [3]): > 167 µM
Cc1coc(CNc2nc(NCCN(C)C)nc3c2ncn3C2CCCCO2)c1 (stereo not shown) [Compound 127] | 10.4 |  |  |  | IC50 [1]: > 167 µM; IC50 (B10A.4 [2]): > 167 µM; IC50 (NIH-3T3 [3]): > 167 µM
CNc1nc(NCc2ccc(C)o2)c2ncn(C3CCCCO3)c2n1 (stereo not shown) [Compound 128, 2-(Methylamino)-6-[(5-methylfurfuryl)amino]-9-(tetrahydro-2H-pyran-2-yl)-9H-purine] |  |  |  |  | ORAC (compound/trolox) [4]: 0.461 ± 0.003
Cc1ccc(CNc2nc(NCCN(C)C)nc3c2ncn3C2CCCCO2)o1 (stereo not shown) [Compound 132] | 10.7 |  |  |  | IC50 [1]: > 167 µM; IC50 (B10A.4 [2]): > 167 µM; IC50 (NIH-3T3 [3]): > 167 µM
CN(C)c1nc(NCc2cccc(O)c2)c2ncn(C3CCCCO3)c2n1 (stereo not shown) [Compound 155, 2-(Dimethylamino)-6-[(3-hydroxybenzyl)amino]-9-(tetrahydro-2H-pyran-2-yl)-9H-purine] |  |  |  |  | ORAC (compound/trolox) [4]: 2.422 ± 0.107
CN(C)c1nc(NCc2ccc(O)cc2)c2ncn(C3CCCCO3)c2n1 (stereo not shown) [Compound 160, 2-(Dimethylamino)-6-[(4-hydroxybenzyl)amino]-9-(tetrahydro-2H-pyran-2-yl)-9H-purine] |  |  |  |  | ORAC (compound/trolox) [4]: 0.728 ± 0.016
CCCCCCCCCCCCOS(=O)(=O)O [lauryl sulfate, reference compound] |  |  |  |  | Primary Irritation Index [11]: 1.67
Oc1ccccc1CNc1ncnc2nc[nH]c12 [ortho-topolin, reference compound] |  | 108 | 94.1 |  | 
